Measured values reported in PubChem BioAssay (NCI).
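GI50 is the concentration that inhibits growth by half. TGI: concentration producing complete growth inhibition.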

Legend:
Assay in all cases: inhibition of tumour cell growth, NCI panel, 384-well format
786-0 renal = tested on: 786-0 renal
A498 renal = tested on: A498 renal
A549 NSCLC = tested on: A549 NSCLC
ACHN renal = tested on: ACHN renal
BT-549 breast = tested on: BT-549 breast
CAKI-1 renal = tested on: CAKI-1 renal
CCRF-CEM leukemia = tested on: CCRF-CEM leukemia
DU-145 prostate = tested on: DU-145 prostate
EKVX NSCLC = tested on: EKVX NSCLC
HCT-116 colon = tested on: HCT-116 colon
HCT-15 colon = tested on: HCT-15 colon
HL-60(TB) leukemia = tested on: HL-60(TB) leukemia
HOP-62 NSCLC = tested on: HOP-62 NSCLC
HOP-92 NSCLC = tested on: HOP-92 NSCLC
HS 578T breast = tested on: HS 578T breast
HT29 colon = tested on: HT29 colon
IGROV1 ovarian = tested on: IGROV1 ovarian
K-562 leukemia = tested on: K-562 leukemia
KM12 colon = tested on: KM12 colon
LOX IMVI melanoma = tested on: LOX IMVI melanoma
M14 melanoma = tested on: M14 melanoma
MALME-3M melanoma = tested on: MALME-3M melanoma
MCF7 breast = tested on: MCF7 breast
MDA-MB-231 breast = tested on: MDA-MB-231 breast
MDA-MB-435 melanoma = tested on: MDA-MB-435 melanoma
MDA-MB-468 breast = tested on: MDA-MB-468 breast
MOLT-4 leukemia = tested on: MOLT-4 leukemia
NCI-H226 lung = tested on: NCI-H226 lung
NCI-H23 lung = tested on: NCI-H23 lung
NCI-H322M lung = tested on: NCI-H322M lung
NCI-H522 lung = tested on: NCI-H522 lung
NCI/ADR-RES ovarian = tested on: NCI/ADR-RES ovarian
OVCAR-3 ovarian = tested on: OVCAR-3 ovarian
OVCAR-4 ovarian = tested on: OVCAR-4 ovarian
OVCAR-5 ovarian = tested on: OVCAR-5 ovarian
OVCAR-8 ovarian = tested on: OVCAR-8 ovarian
PC-3 prostate = tested on: PC-3 prostate
RPMI-8226 leukemia = tested on: RPMI-8226 leukemia
RXF 393 renal = tested on: RXF 393 renal
SF-268 CNS = tested on: SF-268 CNS
SF-295 CNS = tested on: SF-295 CNS
SF-539 CNS = tested on: SF-539 CNS
SK-MEL-2 melanoma = tested on: SK-MEL-2 melanoma
SK-MEL-28 melanoma = tested on: SK-MEL-28 melanoma
SK-OV-3 ovarian = tested on: SK-OV-3 ovarian
SN12C renal = tested on: SN12C renal
SNB-19 CNS = tested on: SNB-19 CNS
SNB-75 CNS = tested on: SNB-75 CNS
SW-620 colon = tested on: SW-620 colon
T-47D breast = tested on: T-47D breast
TK-10 renal = tested on: TK-10 renal
U251 glioblastoma = tested on: U251 glioblastoma
UACC-257 melanoma = tested on: UACC-257 melanoma
UACC-62 melanoma = tested on: UACC-62 melanoma
UO-31 renal = tested on: UO-31 renal

SMILES: Cn1nnc2c(C(N)=O)ncn2c1=O
- GI50 ([…]-0 renal): > 100 µM
- TGI (786-0 renal): > 100 µM
- GI50 (A498 renal): > 100 µM
- TGI (A498 renal): > 100 µM
- GI50 (A549 NSCLC): > 100 µM
- TGI (A549 NSCLC): > 100 µM
- GI50 (ACHN renal): > 100 µM
- TGI (ACHN renal): > 100 µM
- GI50 (BT-549 breast): > 100 µM
- TGI (BT-549 breast): > 100 µM
- GI50 (CAKI-1 renal): > 100 µM
- TGI (CAKI-1 renal): > 100 µM
- GI50 (CCRF-CEM leukemia): > 100 µM
- TGI (CCRF-CEM leukemia): > 100 µM
- GI50 (DU-145 prostate): > 100 µM
- TGI (DU-145 prostate): > 100 µM
- GI50 (EKVX NSCLC): > 100 µM
- TGI (EKVX NSCLC): > 100 µM
- GI50 (HCT-116 colon): > 100 µM
- TGI (HCT-116 colon): > 100 µM
- GI50 (HCT-15 colon): > 100 µM
- TGI (HCT-15 colon): > 100 µM
- GI50 (HL-60(TB) leukemia): > 100 µM
- TGI (HL-60(TB) leukemia): > 100 µM
- GI50 (HOP-62 NSCLC): > 100 µM
- TGI (HOP-62 NSCLC): > 100 µM
- GI50 (HOP-92 NSCLC): > 100 µM
- TGI (HOP-92 NSCLC): > 100 µM
- GI50 (HS 578T breast): > 100 µM
- TGI (HS 578T breast): > 100 µM
- GI50 (HT29 colon): > 100 µM
- TGI (HT29 colon): > 100 µM
- GI50 (IGROV1 ovarian): > 100 µM
- TGI (IGROV1 ovarian): > 100 µM
- GI50 (K-562 leukemia): > 100 µM
- TGI (K-562 leukemia): > 100 µM
- GI50 (KM12 colon): > 100 µM
- TGI (KM12 colon): > 100 µM
- GI50 (LOX IMVI melanoma): > 100 µM
- TGI (LOX IMVI melanoma): > 100 µM
- GI50 (M14 melanoma): > 100 µM
- TGI (M14 melanoma): > 100 µM
- GI50 (MALME-3M melanoma): > 100 µM
- TGI (MALME-3M melanoma): > 100 µM
- GI50 (MCF7 breast): > 100 µM
- TGI (MCF7 breast): > 100 µM
- GI50 (MDA-MB-231 breast): > 100 µM
- TGI (MDA-MB-231 breast): > 100 µM
- GI50 (MDA-MB-435 melanoma): > 100 µM
- TGI (MDA-MB-435 melanoma): > 100 µM
- GI50 (MDA-MB-468 breast): > 100 µM
- TGI (MDA-MB-468 breast): > 100 µM
- GI50 (MOLT-4 leukemia): > 100 µM
- TGI (MOLT-4 leukemia): > 100 µM
- GI50 (NCI-H226 lung): > 100 µM
- TGI (NCI-H226 lung): > 100 µM
- GI50 (NCI-H23 lung): > 100 µM
- TGI (NCI-H23 lung): > 100 µM
- GI50 (NCI-H322M lung): > 100 µM
- TGI (NCI-H322M lung): > 100 µM
- GI50 (NCI-H522 lung): > 100 µM
- TGI (NCI-H522 lung): > 100 µM
- GI50 (NCI/ADR-RES ovarian): > 100 µM
- TGI (NCI/ADR-RES ovarian): > 100 µM
- GI50 (OVCAR-3 ovarian): > 100 µM
- TGI (OVCAR-3 ovarian): > 100 µM
- GI50 (OVCAR-4 ovarian): > 100 µM
- TGI (OVCAR-4 ovarian): > 100 µM
- GI50 (OVCAR-5 ovarian): > 100 µM
- TGI (OVCAR-5 ovarian): > 100 µM
- GI50 (OVCAR-8 ovarian): > 100 µM
- TGI (OVCAR-8 ovarian): > 100 µM
- GI50 (PC-3 prostate): > 100 µM
- TGI (PC-3 prostate): > 100 µM
- GI50 (RPMI-8226 leukemia): > 100 µM
- TGI (RPMI-8226 leukemia): > 100 µM
- GI50 (RXF 393 renal): > 100 µM
- TGI (RXF 393 renal): > 100 µM
- GI50 (SF-268 CNS): > 100 µM
- TGI (SF-268 CNS): > 100 µM
- GI50 (SF-295 CNS): > 100 µM
- TGI (SF-295 CNS): > 100 µM
- GI50 (SF-539 CNS): > 100 µM
- TGI (SF-539 CNS): > 100 µM
- GI50 (SK-MEL-2 melanoma): > 100 µM
- TGI (SK-MEL-2 melanoma): > 100 µM
- GI50 (SK-MEL-28 melanoma): > 100 µM
- TGI (SK-MEL-28 melanoma): > 100 µM
- GI50 (SK-OV-3 ovarian): > 100 µM
- TGI (SK-OV-3 ovarian): > 100 µM
- GI50 (SN12C renal): > 100 µM
- TGI (SN12C renal): > 100 µM
- GI50 (SNB-19 CNS): > 100 µM
- TGI (SNB-19 CNS): > 100 µM
- GI50 (SNB-75 CNS): > 100 µM
- TGI (SNB-75 CNS): > 100 µM
- GI50 (SW-620 colon): > 100 µM
- TGI (SW-620 colon): > 100 µM
- GI50 (T-47D breast): > 100 µM
- TGI (T-47D breast): > 100 µM
- GI50 (TK-10 renal): > 100 µM
- TGI (TK-10 renal): > 100 µM
- GI50 (U251 glioblastoma): > 100 µM
- TGI (U251 glioblastoma): > 100 µM
- GI50 (UACC-257 melanoma): > 100 µM
- TGI (UACC-257 melanoma): > 100 µM
- GI50 (UACC-62 melanoma): > 100 µM
- TGI (UACC-62 melanoma): > 100 µM
- GI50 (UO-31 renal): > 100 µM
- TGI (UO-31 renal): > 100 µM
